Experimental data: patent US20050112573A1, “Method of detecting toxic substance” (priority 2001, published 2005)

System: yeast genes (level of expressed mRNA)
Assay: DNA chip analysis of expressed mRNA of yeast genes after 2 h culture with a toxic chemical substance
Format: cell-based, Saccharomyces cerevisiae S288C
Outline: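 Values are treated-to-control fluorescence ratios from a whole-yeast-genome DNA chip (65° C, over 12 h hybridization) using Cy3/Cy5-labelled cDNA from mRNA. Log-phase S288C cells in YPD at 25° C were exposed 2 h to a toxicant at sublethal, growth-inhibiting concentration.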

Substance: HgCl2 [(3)]
- The level of expressed mRNA in the presence of chemical substance/ (yeast gene YFL010C, ratio to control without chemical substance, 2 h culture): 1.3
- The level of expressed mRNA in the presence of chemical substance/ (yeast gene YFL024C, ratio to control without chemical substance, 2 h culture): 1.1
- The level of expressed mRNA in the presence of chemical substance/The level of expressed mRNA in the absence of chemical substance (yeast gene YFL028C): 0.7
- The level of expressed mRNA in the presence of chemical substance/ (yeast gene YFL032W, ratio to control without chemical substance, 2 h culture): 1.6
- The level of expressed mRNA in the presence of chemical substance/The level of expressed mRNA in the absence of chemical substance (yeast gene YFL043C): 0.6
- The level of expressed mRNA in the presence of chemical substance/in the absence of chemical substance (yeast gene YGL035C): 4.3
- The level of expressed mRNA in the presence of chemical substance/ (yeast gene YGL037C, ratio to control without chemical substance, 2 h culture): 6.5
- The level of expressed mRNA in the presence of chemical substance/ (yeast gene YGL047W, ratio to control without chemical substance, 2 h culture): 1.6
- The level of expressed mRNA in the presence of chemical substance/ (yeast gene YGL053W, ratio to control without chemical substance, 2 h culture): 1.2
- The level of expressed mRNA in the presence of chemical substance/ (yeast gene YGL121C, ratio to control without chemical substance, 2 h culture): 1.4
- The level of expressed mRNA in the presence of chemical substance/The level of expressed mRNA in the absence of chemical substance (yeast gene YGL158W): 1.9
- The level of expressed mRNA in the presence of chemical substance/ (yeast gene YGL199C, ratio to control without chemical substance, 2 h culture): 1.7
- The level of expressed mRNA in the presence of chemical substance/The level of expressed mRNA in the absence of chemical substance (yeast gene YGL229C): 0.9
- The level of expressed mRNA in the presence of chemical substance/ (yeast gene YGR101W, ratio to control without chemical substance, 2 h culture): 1.2
- The level of expressed mRNA in the presence of chemical substance/ (yeast gene YGR110W, ratio to control without chemical substance, 2 h culture): 2.2
- The level of expressed mRNA in the presence of chemical substance/ (yeast gene YGR130C, ratio to control without chemical substance, 2 h culture): 0.6
- The level of expressed mRNA in the presence of chemical substance/The level of expressed mRNA in the absence of chemical substance (yeast gene YGR136W): 1.3
- The level of expressed mRNA in the presence of chemical substance/ (yeast gene YGR154C, ratio to control without chemical substance, 2 h culture): 2.2
- The level of expressed mRNA in the presence of chemical substance/The level of expressed mRNA in the absence of chemical substance (yeast gene YGR189C): 1.5
- The level of expressed mRNA in the presence of chemical substance/The level of expressed mRNA in the absence of chemical substance (yeast gene YGR213C): 1.0
- The level of expressed mRNA in the presence of chemical substance/ (yeast gene YGR221C, ratio to control without chemical substance, 2 h culture): 0.9
- The level of expressed mRNA in the presence of chemical substance/The level of expressed mRNA in the absence of chemical substance (yeast gene YGR257C): 0.9
- The level of expressed mRNA in the presence of chemical substance/in the absence of chemical substance (yeast gene YGR287C): 1.3
- The level of expressed mRNA in the presence of chemical substance/The level of expressed mRNA in the absence of chemical substance (yeast gene YHR004C): 0.8
- The level of expressed mRNA in the presence of chemical substance/The level of expressed mRNA in the absence of chemical substance (yeast gene YHR071W): 0.6
- The level of expressed mRNA in the presence of chemical substance/ (yeast gene YHR138C, ratio to control without chemical substance, 2 h culture): 2.2
- The level of expressed mRNA in the presence of chemical substance/The level of expressed mRNA in the absence of chemical substance (yeast gene YHR139C): 6.8
- The level of expressed mRNA in the presence of chemical substance/The level of expressed mRNA in the absence of chemical substance (yeast gene YHR142W): 2.1
- The level of expressed mRNA in the presence of chemical substance/ (yeast gene YHR199C, ratio to control without chemical substance, 2 h culture): 3.2
- The level of expressed mRNA in the presence of chemical substance/ (yeast gene YIL023C, ratio to control without chemical): 2.1
- The level of expressed mRNA in the presence of chemical substance/ (yeast gene YIL041W, ratio to control without chemical substance, 2 h culture): 2.1
- The level of expressed mRNA in the presence of chemical substance/ (yeast gene YIL087C, ratio to control without chemical substance, 2 h culture): 3.4
- The level of expressed mRNA in the presence of chemical substance/The level of expressed mRNA in the absence of chemical substance (yeast gene YIL123W): 1.2
- The level of expressed mRNA in the presence of chemical substance/The level of expressed mRNA in the absence of chemical substance (yeast gene YIL140W): 1.5
- The level of expressed mRNA in the presence of chemical substance/ (yeast gene YJL057C, ratio to control without chemical substance, 2 h culture): 1.6
- The level of expressed mRNA in the presence of chemical substance/ (yeast gene YJL066C, ratio to control without chemical substance, 2 h culture): 1.2
- The level of expressed mRNA in the presence of chemical substance/in the absence of chemical substance (yeast gene YJL070C): 1.1
- The level of expressed mRNA in the presence of chemical substance/The level of expressed mRNA in the absence of chemical substance (yeast gene YJL073W): 2.5
- The level of expressed mRNA in the presence of chemical substance/ (yeast gene YJL082W, ratio to control without chemical substance, 2 h culture): 2.4
- The level of expressed mRNA in the presence of chemical substance/The level of expressed mRNA in the absence of chemical substance (yeast gene YJL089W): 1.0
- The level of expressed mRNA in the presence of chemical substance/The level of expressed mRNA in the absence of chemical substance (yeast gene YJL116C): 1.3
- The level of expressed mRNA in the presence of chemical substance/ (yeast gene YJL151C, ratio to control without chemical substance, 2 h culture): 3.2
- The level of expressed mRNA in the presence of chemical substance/ (yeast gene YJL152W, ratio to control without chemical substance, 2 h culture): 1.8
- The level of expressed mRNA in the presence of chemical substance/ (yeast gene YJL161W, ratio to control without chemical substance, 2 h culture): 1.5
- The level of expressed mRNA in the presence of chemical substance/in the absence of chemical substance (yeast gene YJL167W): 1.4
- The level of expressed mRNA in the presence of chemical substance/ (yeast gene YJL171C, ratio to control without chemical substance, 2 h culture): 2.8
- The level of expressed mRNA in the presence of chemical substance/in the absence of chemical substance (yeast gene YJL216C): 2.2
- The level of expressed mRNA in the presence of chemical substance/The level of expressed mRNA in the absence of chemical substance (yeast gene YJR004C): 3.4
- The level of expressed mRNA in the presence of chemical substance/ (yeast gene YJR008W, ratio to control without chemical substance, 2 h culture): 1.2
- The level of expressed mRNA in the presence of chemical substance/ (yeast gene YJR054W, ratio to control without chemical): 0.3
- The level of expressed mRNA in the presence of chemical substance/The level of expressed mRNA in the absence of chemical substance (yeast gene YJR086W): 0.8
- The level of expressed mRNA in the presence of chemical substance/The level of expressed mRNA in the absence of chemical substance (yeast gene YKL008C): 2.0
- The level of expressed mRNA in the presence of chemical substance/The level of expressed mRNA in the absence of chemical substance (yeast gene YKL013C): 1.4
- The level of expressed mRNA in the presence of chemical substance/The level of expressed mRNA in the absence of chemical substance (yeast gene YKL039W): 2.4
- The level of expressed mRNA in the presence of chemical substance/The level of expressed mRNA in the absence of chemical substance (yeast gene YKL041W): 1.1
- The level of expressed mRNA in the presence of chemical substance/ (yeast gene YKL071W, ratio to control without chemical substance, 2 h culture): 5.4
